According to patent US20200172529A1, “Chemical Compound, Pharmaceutical Composition Thereof, and Use and Application Thereof” (Beijing Hanmi Pharm. Co., Ltd., priority 2017, published 2020):
pIC50: −log10 of the molar value.

Columns and labels:
Assay type in all cases: biochemical
TYK2 kinase = molecular target: T1, TYK2 kinase (Homo sapiens, UniProt P29597); experiment: Inhibition assay of TYK2 kinase activity (ADP-Glo Kinase Assay)
T1 construct: purchased Life Technologies PR8440C
Description: Determination of inhibition of TYK2 kinase activity by the examples compounds disclosed herein
Inhibition assay of TYK2 kinase activity: the method of ADP-Glo™ Kinase Assay (Promega, V9102) was used to determine the inhibitory activity of the test compounds against TYK2 kinase.
TYK2 kinase (purchased from Life Technologies, article number: PR8440C) was diluted to the 2-fold final concentration (0.8 ng/mL) using reaction buffer (40 mM Tris-HCl, pH 7.5; 20 mM MgCl2; 0.1 mg/mL BSA; 1 mM DTT), and added to a 384-well plate at 5 μL/well. The test drugs were subjected to a 10-fold gradient dilution, from 10 μM, to obtain 6 concentrations, and added to experimental wells of the 384-well plate at 2.5 μL/well. 5 μL of water and 2.5 μL of buffer were added to negative control wells. 5 μL of TYK2 and 2.5 μL of water were added to positive control wells. After incubating for 10 minutes at room temperature, the substrate ATP and polyE4Y1 (Sigma, P0275) were added at 2.5 μL/well, mixed well, and then reacted at room temperature for 60 minutes. After the reaction was completed, the kinase activity was detected according to the instruction of the kit. First, the ADP-Glo reaction reagent was added at 10 μL/well, mixed well, and reacted at room temperature for 40 minutes. The kinase detection reagent was then added at 20 μL/well, mixed well, and then reacted at room temperature for 30 minutes. The detection was then performed and the IC50s of test drugs were calculated.

JAK1 kinase = JAK1 kinase (Homo sapiens, UniProt P23458); experiment: Inhibition assay of JAK1 kinase activity (ADP-Glo Kinase Assay)
From the text: Inhibition assay of JAK1 kinase activity: the method in ADP-Glo™ Kinase Assay (Promega, V9102) was used to determine the inhibitory activity of the test compounds against JAK1 kinase.

JAK2 kinase = JAK2 kinase (Homo sapiens, UniProt O60674); experiment: Inhibition assay of JAK2 kinase activity (ADP-Glo Kinase Assay)
From the text: Inhibition assay of JAK2 kinase activity: the method in ADP-Glo™ Kinase Assay (Promega, V9102) was used to determine the inhibitory activity of the test compounds against JAK2 kinase.

Chain of JAK2 kinase (O60674 whole entry): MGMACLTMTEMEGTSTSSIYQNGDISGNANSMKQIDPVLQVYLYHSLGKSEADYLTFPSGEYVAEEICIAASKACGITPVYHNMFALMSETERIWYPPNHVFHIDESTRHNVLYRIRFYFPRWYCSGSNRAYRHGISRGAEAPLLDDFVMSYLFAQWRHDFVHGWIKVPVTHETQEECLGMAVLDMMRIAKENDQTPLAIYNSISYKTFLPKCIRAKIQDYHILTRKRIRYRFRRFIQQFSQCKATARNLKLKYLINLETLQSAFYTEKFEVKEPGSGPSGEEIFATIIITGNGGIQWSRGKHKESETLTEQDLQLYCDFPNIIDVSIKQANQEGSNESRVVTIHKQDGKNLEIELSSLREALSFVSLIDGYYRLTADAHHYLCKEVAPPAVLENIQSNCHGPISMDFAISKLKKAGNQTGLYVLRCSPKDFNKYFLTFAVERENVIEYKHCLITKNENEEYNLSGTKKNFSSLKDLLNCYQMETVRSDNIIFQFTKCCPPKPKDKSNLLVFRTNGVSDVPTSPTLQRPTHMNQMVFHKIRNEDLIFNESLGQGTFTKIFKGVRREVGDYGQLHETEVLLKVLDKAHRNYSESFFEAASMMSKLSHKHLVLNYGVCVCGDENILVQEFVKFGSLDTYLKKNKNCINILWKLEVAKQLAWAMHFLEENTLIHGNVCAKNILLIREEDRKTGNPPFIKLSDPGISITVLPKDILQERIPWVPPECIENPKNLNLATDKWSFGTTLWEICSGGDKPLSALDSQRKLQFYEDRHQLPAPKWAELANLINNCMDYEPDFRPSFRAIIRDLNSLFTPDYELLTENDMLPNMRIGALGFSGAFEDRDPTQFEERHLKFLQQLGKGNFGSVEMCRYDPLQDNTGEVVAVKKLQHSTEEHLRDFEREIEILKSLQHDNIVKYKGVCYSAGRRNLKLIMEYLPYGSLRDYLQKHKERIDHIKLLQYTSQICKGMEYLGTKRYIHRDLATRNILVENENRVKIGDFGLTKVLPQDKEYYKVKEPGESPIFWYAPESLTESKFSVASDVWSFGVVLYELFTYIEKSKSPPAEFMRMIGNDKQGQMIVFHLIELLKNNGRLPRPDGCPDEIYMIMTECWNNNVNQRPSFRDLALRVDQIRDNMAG
T1 sequence (P29597 whole entry): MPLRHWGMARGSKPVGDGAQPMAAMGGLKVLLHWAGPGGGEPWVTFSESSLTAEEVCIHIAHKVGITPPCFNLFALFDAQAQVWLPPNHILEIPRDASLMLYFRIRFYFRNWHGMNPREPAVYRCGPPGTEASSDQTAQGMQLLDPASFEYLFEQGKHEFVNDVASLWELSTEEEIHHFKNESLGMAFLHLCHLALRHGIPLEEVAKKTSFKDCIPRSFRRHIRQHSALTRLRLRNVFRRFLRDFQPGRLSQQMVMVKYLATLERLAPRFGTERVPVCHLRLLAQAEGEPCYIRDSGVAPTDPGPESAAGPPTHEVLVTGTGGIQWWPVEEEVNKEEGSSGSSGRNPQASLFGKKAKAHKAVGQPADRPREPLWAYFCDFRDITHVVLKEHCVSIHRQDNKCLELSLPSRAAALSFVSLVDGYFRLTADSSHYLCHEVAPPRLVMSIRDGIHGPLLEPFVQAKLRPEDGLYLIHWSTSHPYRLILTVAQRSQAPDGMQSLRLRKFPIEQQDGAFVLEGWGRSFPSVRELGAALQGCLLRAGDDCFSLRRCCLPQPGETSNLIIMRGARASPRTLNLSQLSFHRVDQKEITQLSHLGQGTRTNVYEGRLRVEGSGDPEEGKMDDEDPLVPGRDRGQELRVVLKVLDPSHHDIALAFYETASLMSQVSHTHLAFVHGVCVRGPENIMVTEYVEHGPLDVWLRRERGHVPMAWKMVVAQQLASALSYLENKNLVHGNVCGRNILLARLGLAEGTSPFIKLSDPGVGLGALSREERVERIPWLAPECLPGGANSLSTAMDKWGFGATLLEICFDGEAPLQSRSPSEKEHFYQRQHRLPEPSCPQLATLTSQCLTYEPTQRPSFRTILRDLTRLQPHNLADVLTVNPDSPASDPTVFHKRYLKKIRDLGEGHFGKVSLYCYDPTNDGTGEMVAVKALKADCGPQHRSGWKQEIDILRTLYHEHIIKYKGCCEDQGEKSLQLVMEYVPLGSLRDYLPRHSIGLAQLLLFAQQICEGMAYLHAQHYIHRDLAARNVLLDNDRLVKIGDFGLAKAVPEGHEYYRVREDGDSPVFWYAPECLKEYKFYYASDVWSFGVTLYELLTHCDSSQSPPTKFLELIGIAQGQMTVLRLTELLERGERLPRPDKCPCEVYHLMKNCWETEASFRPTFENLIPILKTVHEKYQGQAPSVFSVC
Chain of JAK1 kinase (P23458 whole entry): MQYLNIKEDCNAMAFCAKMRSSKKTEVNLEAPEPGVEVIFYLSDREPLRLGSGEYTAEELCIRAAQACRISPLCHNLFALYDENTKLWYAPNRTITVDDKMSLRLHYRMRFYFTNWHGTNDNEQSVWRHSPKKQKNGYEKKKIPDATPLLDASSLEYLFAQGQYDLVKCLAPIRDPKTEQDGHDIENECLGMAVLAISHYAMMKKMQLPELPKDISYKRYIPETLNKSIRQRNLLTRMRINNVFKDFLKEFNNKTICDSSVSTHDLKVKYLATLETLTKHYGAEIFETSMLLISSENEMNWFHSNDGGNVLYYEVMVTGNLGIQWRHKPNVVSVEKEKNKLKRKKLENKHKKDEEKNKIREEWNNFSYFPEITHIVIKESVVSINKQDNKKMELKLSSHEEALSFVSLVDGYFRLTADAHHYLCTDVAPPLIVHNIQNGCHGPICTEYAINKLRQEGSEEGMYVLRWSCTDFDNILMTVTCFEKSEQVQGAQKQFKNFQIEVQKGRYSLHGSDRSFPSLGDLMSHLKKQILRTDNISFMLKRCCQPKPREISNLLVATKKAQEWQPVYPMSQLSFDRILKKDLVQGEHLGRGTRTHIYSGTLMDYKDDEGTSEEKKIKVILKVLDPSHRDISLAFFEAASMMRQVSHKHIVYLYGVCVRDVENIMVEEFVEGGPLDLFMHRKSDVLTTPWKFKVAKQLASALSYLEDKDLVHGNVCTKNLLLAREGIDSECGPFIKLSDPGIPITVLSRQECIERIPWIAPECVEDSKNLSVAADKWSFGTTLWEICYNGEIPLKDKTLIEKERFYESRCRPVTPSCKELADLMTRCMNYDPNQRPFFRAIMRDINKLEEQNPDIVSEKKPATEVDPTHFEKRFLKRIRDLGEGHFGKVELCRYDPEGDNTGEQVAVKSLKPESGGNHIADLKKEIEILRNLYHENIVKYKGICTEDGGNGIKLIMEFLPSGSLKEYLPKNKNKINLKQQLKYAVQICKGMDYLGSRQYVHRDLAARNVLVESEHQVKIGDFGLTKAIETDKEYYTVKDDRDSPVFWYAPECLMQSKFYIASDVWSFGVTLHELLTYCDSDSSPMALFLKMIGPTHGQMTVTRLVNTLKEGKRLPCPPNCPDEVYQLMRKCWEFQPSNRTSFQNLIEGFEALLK

SMILES	pIC50 (TYK2 kinase)	pIC50 (JAK1 kinase)	pIC50 (JAK2 kinase)
NC(=O)c1cnc(Nc2ccc3c(c2)NCC(O)CO3)nc1NCc1cccnc1 (stereo not drawn) [Example 14, 4-((pyridin-3-ylmethyl)amino)-2-((3-hydroxy-2,3,4,5-tetrahydro-benzo[b][1,4]oxazepin-7-yl)amino)pyrimidin-5-carboxamide]	> 8.00	7.00 to 8.00	
NC(=O)c1cnc(Nc2ccc3c(c2)NCC(O)CO3)nc1NC1CCOCC1 (stereo not drawn) [Example 6, 4-((tetrahydropyran-4-yl)amino)-2-((3-hydroxy-2,3,4,5-tetrahydro-benzo[b][1,4]oxazepin-7-yl)amino)pyrimidin-5-carboxamide]	> 8.00	7.00 to 8.00	
NC(=O)c1cnc(Nc2ccc3c(c2)NCC(O)CO3)nc1NCc1ccccc1 (stereo not drawn) [Example 9, 4-(benzylamino)-2-((3-hydroxy-2,3,4,5-tetrahydro-benzo[b][1,4]oxazepin-7-yl)amino)pyrimidin-5-carboxamide]	> 8.00	> 8.00	7.00 to 8.00
CC(Nc1nc(Nc2ccc3c(c2)NC[C@H](O)CO3)ncc1C(N)=O)C(F)(F)F (stereo partly drawn) [Example 32, 4-(1,1,1-trifluoropropan-2-ylamino)-2-(((S)-2,3,4,5-tetrahydro-3-hydroxybenzo[b][1,4]oxazepin-7-yl)amino)pyrimidin-5-carboxamide]	7.00 to 8.00	7.00 to 8.00	
NC(=O)c1cnc(Nc2ccc3c(c2)NCC(O)CO3)nc1NCC(F)(F)F (stereo not drawn) [Example 7, 4-((2,2,2-trifluoroethyl)amino)-2-((3-hydroxy-2,3,4,5-tetrahydro-benzo[b][1,4]oxazepin-7-yl)amino)pyrimidin-5-carboxamide]	> 8.00	7.00 to 8.00	7.00 to 8.00
CO[C@H]1CNc2cc(Nc3ncc(C(N)=O)c(NC4CC4)n3)ccc2OC1 [Example 27, (S)-4-(cyclopropylamino)-2-((3-methoxy-2,3,45-tetrahydro-benzo[b][1,4]oxazepin-7-yl)amino)pyrimidin-5-carboxamide]	> 8.00	> 8.00	7.00 to 8.00
Cn1ccc2c(Nc3nc(Nc4ccc5c(c4)NCC(O)CO5)ncc3C(N)=O)cccc21 (stereo not drawn) [Example 20, 4-((1-methyl-1H-indol-4-yl)amino)-2-((3-hydroxy-2,3,4,5-tetrahydro-benzo[b][1,4]oxazepin-7-yl)amino)pyrimidin-5-carboxamide]	> 8.00	7.00 to 8.00	
NC(=O)c1cnc(Nc2ccc3c(c2)NCC(O)CO3)nc1NC1CCCCC1 (stereo not drawn) [Example 4, 4-(cyclohexylamino)-2-((3-hydroxy-2,3,4,5-tetrahydro-benzo[b][1,4]oxazepin-7-yl)amino)pyrimidin-5-carboxamide]	> 8.00	7.00 to 8.00	
NC(=O)c1cnc(Nc2ccc3c(c2)NC[C@H](O)CO3)nc1NC1CC1 [Example 26, (S)-4-(cyclopropylamino)-2-((3-hydroxy-2,3,4,5-tetrahydro-benzo[b][1,4]oxazepin-7-yl)amino)pyrimidin-5-carboxamide]	> 8.00	> 8.00	> 8.00
NC(=O)c1cnc(Nc2ccc3c(c2)NCC(O)CO3)nc1NC1CCCC1 (stereo not drawn) [Example 3, 4-(cyclopentylamino)-2-((3-hydroxy-2,3,4,5-tetrahydro-benzo[b][1,4]oxazepin-7-yl)amino)pyrimidin-5-carboxamide]	> 8.00	> 8.00	
N#CCNc1nc(Nc2ccc3c(c2)NCC(O)CO3)ncc1C(N)=O (stereo not drawn) [Example 8, 4-(cyanomethylamino)-2-((3-hydroxy-2,3,4,5-tetrahydro-benzo[b][1,4]oxazepin-7-yl)amino)pyrimidin-5-carboxamide]	> 8.00	7.00 to 8.00	
NC(=O)c1cnc(Nc2ccc3c(c2)NCC(O)CO3)nc1NC12CC3CC(CC(C3)C1)C2 (stereo not drawn) [Example 5, 4-((adamantanyl-1-yl)amino)-2-((3-hydroxy-2,3,4,5-tetrahydro-benzo[b][1,4]oxazepin-7-yl)amino)pyrimidin-5-carboxamide]	7.00 to 8.00	7.00 to 8.00	

Results, then the compound that gave them:

pIC50 (TYK2 kinase)	pIC50 (JAK1 kinase)	pIC50 (JAK2 kinase)	SMILES
> 8.00	> 8.00	> 8.00	NC(=O)c1cnc(Nc2ccc3c(c2)NC[C@H](O)CO3)nc1NCCCCO [Example 48, 4-((4-hydroxybutyl)amino)-2-(((S)-2,3,4,5-tetrahydro-3-hydroxybenzo[b][1,4]oxazepin-7-yl)amino)pyrimidin-5-carboxamide]
> 8.00	7.00 to 8.00		CCNc1nc(Nc2ccc3c(c2)NC[C@H](O)CO3)ncc1C(N)=O [Example 40, 4-(ethylamino)-2-(((S)-2,3,4,5-tetrahydro-3-hydroxybenzo[b][1,4]oxazepin-7-yl)amino)pyrimidin-5-carboxamide]
> 8.00	7.00 to 8.00		CC(C)Nc1nc(Nc2ccc3c(c2)NC[C@H](O)CO3)ncc1C(N)=O [Example 30, 4-(isopropylamino)-2-(((S)-2,3,4,5-tetrahydro-3-hydroxybenzo[b][1,4]oxazepin-7-yl)amino)pyrimidin-5-carboxamide]
> 8.00	> 8.00	> 8.00	NC(=O)c1cnc(Nc2ccc3c(c2)NC[C@H](O)CO3)nc1NC12CC3CC(C1)C(O)C(C3)C2 (stereo partly drawn) [Example 49, 4-((4-hydroxyadamantan-1-yl)amino)-2-(((S)-2,3,4,5-tetrahydro-3-hydroxybenzo[b][1,4]oxazepin-7-yl)amino)pyrimidin-5-carboxamide]
> 8.00	7.00 to 8.00		NC(=O)c1cnc(Nc2ccc3c(c2)NC[C@H](O)CO3)nc1NC1CCCCC1 [Example 33, 4-(cyclohexylamino)-2-(((S)-2,3,4,5-tetrahydro-3-hydroxybenzo[b][1,4]oxazepin-7-yl)amino)pyrimidin-5-carboxamide]
7.00 to 8.00	7.00 to 8.00	7.00 to 8.00	CCCO[C@@H]1CNc2cc(Nc3ncc(C(N)=O)c(NC4CC4)n3)ccc2OC1 [Example 84, 4-(cyclopropylamino)-2-(((R)-2,3,4,5-tetrahydro-3-propoxybenzo[b][1,4]oxazepin-7-yl)amino)pyrimidin-5-carboxamide]
> 8.00	7.00 to 8.00		COCCCNc1nc(Nc2ccc3c(c2)NC[C@H](O)CO3)ncc1C(N)=O [Example 52, 4-((3-methoxypropyl)amino)-2-(((S)-2,3,4,5-tetrahydro-3-hydroxybenzo[b][1,4]oxazepin-7-yl)amino)pyrimidin-5-carboxamide]
> 8.00	7.00 to 8.00		NC(=O)c1cnc(Nc2ccc3c(c2)NC[C@H](O)CO3)nc1NC1CCC(O)CC1 (stereo partly drawn) [Example 39, 4-((4-hydroxycyclohexyl)amino)-2(((S)-2,3,4,5-tetrahydro-3-hydroxybenzo[b][1,4]oxazepin-7-yl)amino)pyrimidin-5-carboxamide]
7.00 to 8.00	7.00 to 8.00		NC(=O)c1cnc(Nc2ccc3c(c2)NC[C@H](O)CO3)nc1NC12CC3CC(CC(C3)C1)C2 [Example 45, 4-(adamantan-1-ylamino)-2-(((S)-2,3,4,5-tetrahydro-3-hydroxybenzo[bb][1,4]oxazepin-7-yl)amino)pyrimidin-5-carboxamide]
> 8.00	> 8.00		NC(=O)c1cnc(Nc2ccc3c(c2)NC[C@H](O)CO3)nc1NC12CC3CC(CC(O)(C3)C1)C2 [Example 43, 4-((1-hydroxyadamantan-3-yl)amino)-2-(((S)-2,3,4,5-tetrahydro-3-hydroxybenzo[b][1,4]oxazepin-7-yl)amino)pyrimidin-5-carboxamide]
> 8.00	7.00 to 8.00		NC(=O)c1cnc(Nc2ccc3c(c2)NC[C@H](O)CO3)nc1Nc1cccc(-c2nc[nH]n2)c1 [Example 35]
> 8.00	> 8.00		NC(=O)c1cnc(Nc2ccc3c(c2)NC[C@H](O)CO3)nc1Nc1cccc2[nH]ccc12 [Example 29, 4-((1H-indol-4-yl)amino)-2-(((S)-2,3,4,5-tetrahydro-3-hydroxybenzo[b][1,4]oxazepin-7-yl)amino)pyrimidin-5-carboxamide]
7.00 to 8.00	7.00 to 8.00		NC(=O)c1cnc(Nc2ccc3c(c2)NC[C@H](O)CO3)nc1NC1CNC1 [Example 58, 4-(azetidin-3-ylamino)-2-(((S)-2,3,4,5-tetrahydro-3-hydroxybenzo[b][1,4]oxazepin-7-yl)amino)pyrimidin-5-carboxamide]
